Source: patent publication US20190038556A1, “FORMULATIONS AND CARRIER SYSTEMS INCLUDING COMPOUND INTERACTIVE DOMAINS” (University of Pittsburgh - Of The Commonwealth System of …, priority 2012, published 2019)
In brackets after ≈: the same amount, converted by molar mass. Like-named read-outs stand apart in the source and are kept apart here.

Legend:
[1] = Screening of protected amino acid derivatives as solubilizers and inhibitor of crystallization for JP4-039; assay type: physicochemical
Description: In several studies, we compared a group of ε-Boc-lysine derivatives bearing various modifying groups on the α-NH2 position. […] FIG. 1 illustrates structures of various amino acid derivatives studied in solubility studies of JP4-039 in Table 3. […] In Table 3, the followings designations are used: U—Initially soluble but unstable after 5 min; V—forming vesicles; I—insoluble; and S—soluble.
1(b). Screening of protected amino acid derivatives as solubilizers and inhibitor of crystallization for JP4-039. α-acetyl-ε-Boc-lysine, α-iso-butoxycarbamoyl-ε-Boc-lysine were synthesized from α-NH2-ε-Boc-lysine (1 mmole) dissolved in 5 mL of saturated sodium bicarbonate solution by adding a 4-fold excess of acetyl anhydride or isobutyl chloroformate dissolved in 5 mL of THF over a period of 5 minutes, respectively. THF was removed from the reaction mixture, the remaining mixture was diluted with 50 mL of ethyl acetate. The organic phase was washed with 20 mL of saturated NaHCO3, saline, citric acid (0.5 M) and water sequentially. The organic phase was dried over anhydrous sodium sulfate, and the solvent was removed. The solid residues were recrystallized from ethyl acetate/hexanes mixture. These derivatives, together with a panel of commercially available amine protected derivatives of lysine, phenylalanine, and glycine were prepared as 1-100 mM solution or suspension in 0.1 M Na2HPO4 buffer. Meanwhile, 0.447 μg of JP4-039 dissolved in 5 μL of methanol was added to each well of a 96-well polystyrene plate. One hundred μL of amino acid solution/suspension were added to the methanol solution and mixed well. The physical status of the samples in each well was inspected visually for the physical appearance of brown crystals periodically over 2 h. Some samples were photographed under a microscope after 20 min.

[2] = for Physical form on hydration: 1 mg at 1 mg/ml
Source text: Additional representative studies of paclitaxel PTX loaded onto a carrier agent including only a hydrophilic segment, region or domain conjugated to a drug-interactive segment, region or domain are set forth below.

physchem = test: physchem
Source text: The exact mechanism for the protection of ECGC against oxygen in the form of complex is unknown.

[3] = Particle size measurement by laser dynamic light scattering; assay type: physicochemical; details: for Size +/− SD: agent formulated with multi-chain PEGylated micelle-forming surfactant; for Particle Sizes w/o JP4-039: empty micelles
Description: 1(f). Particle size measurement. […] Samples were further diluted ten times in distilled water and sizes were measured by laser dynamic light scattering using a particle sizer (Zetasizer Nano ZS instrument, available from Malvern Instruments Ltd of Worcestershire, United Kingdom). Size measurement of emulsion particles were conducted using a Coulter N4 particle sizer after a 100-fold dilution in saline.

[4] = Critical micelle concentration (Eosin Y red shift); assay type: physicochemical
Description: 1(d). Critical micelle concentration (CMC). CMC was determined based on the red shift of the maximal absorption of Eosin Y when incorporated into more hydrophobic microenvironment in the core of micelle. Eosin Y solution was added to a final concentration of 1 mM to a series of surfactant solution prepared in distilled water and incubated for 30 minute at room temperature. OD542 nm was measured and plotted against surfactant concentration from which CMC values were estimated.

[5] = PTX loading and formulation stability of PTX/PEG-Fmoc2 mixed micelles (HPLC); assay type: physicochemical
Source text: DLC (%)=[weight of drug used/(weight of polymer+drug used)]×100%
DLE (%)=(weight of loaded drug/weight of input drug)×100%
2(b)(iv). Preparation and biophysical characterization of PTX/PEG-Fmoc2 mixed micelles. Thin-film hydration method was utilized for preparation of PTX/PEG-Fmoc2 mixed nanomicelles. PEG-Fmoc2 and PTX in chloroform were well mixed in a glass tube at designated molar ratios. A thin film of carrier/drug mixture was generated through removal of the organic solvent by a gentle stream of nitrogen. The trace amount of solvent was further removed via vacuum for 2 h. Then the film was hydrated and suspended in DPBS by vortex to obtain a clear solution of PTX/PEG-Fmoc2 mixed nanomicelles. […]
The size distribution of PTX/PEG-Fmoc2 mixed nanomicelles was examined by dynamic light scattering (DLS) via a Malvern Zeta Nanosizer, and the morphology was observed by transmission electron microscopy (TEM) after negative staining. The CMC measurement was performed as reported before with pyrene as a fluorescence probe. To quantify PTX in the micelles, PTX was extracted by methanol, and detected by Waters Alliance 2695-2998 high-performance liquid chromatography (HPLC) system with a RP-18 column (250 mm×4.6 mm) equipped with a UV detector at 227 nm at room temperature. […] The drug loading capacity (DLC) and efficiency (DLE) were calculated as set forth above.

[6] = carrier Methoxy-PEG550-α-Fmoc-lysyl-ε-oleylamide (20 mg/ml)
[7] = aqueous with cosolvent or surfactant or cyclodextrin

| Compound | Solubility status of JP4-039 with amino acid derivative ([1]; molar ratio 5) | Solubility status of JP4-039 with amino acid derivative ([1]; molar ratio 10) | Solubility status of JP4-039 with amino acid derivative ([1]; molar ratio 20) | Solubility status of JP4-039 with amino acid derivative ([1]; molar ratio 30) | Solubility status of JP4-039 with amino acid derivative ([1]; molar ratio 40) | Solubility status of JP4-039 with amino acid derivative ([1]; molar ratio 50) | further results |
| --- | --- | --- | --- | --- | --- | --- | --- |
| CC(=O)N[C@@H](CCCCNC(=O)OCc1ccccc1)C(=O)O [Ace-(Cbz)-Lys-OH] | I | I | I | I | I | S | – |
| O=C(N[C@@H](Cc1ccccc1)C(=O)O)c1ccccc1 [Benz-Phe-OH] | I | – | – | – | – | S | – |
| CC(=O)NCCCC[C@H](NC(=O)OCc1ccccc1)C(=O)O [CBz-(Ace)-Lys-OH] | I | I | I | I | I | S | – |
| CC(C)(C)OC(=O)NCCCC[C@H](NC(=O)OCc1ccccc1)C(=O)O [Cbz-(tBoc)-Lys-OH] | I | I | I | I | S | S | – |
| O=C(O)CCNC(=O)OCc1ccccc1 [Cbz-β-Ala-OH] | I | I | I | I | I | I | – |
| COc1cc(/C=C/C(=O)CC(=O)/C=C/c2ccc(O)c(OC)c2)ccc1O [Curcumin] | – | – | – | – | – | – | Stability of suspension upon hydration [2]: ~1 h; Physical form on hydration [2, 6]: micelle solution; Physical form on hydration ([2]; carrier Methoxy-PEG1000-α-Fmoc-lysyl-ε-(α-Fmoc-ε-Boc lysine), 20 mg/ml): 1 mg at 1 mg/ml, viscous gel; Physical form on hydration ([2]; carrier Methoxy-PEG1000-α-Fmoc-lysyl-ε-(α-Fmoc-ε-Boc lysine), 20 mg/ml, listed as curcumin): suspension |
| O=C(NCCCC[C@H](NC(=O)OCc1ccccc1)C(=O)O)OCc1ccccc1 [Di-(Cbz)-Lys-OH] | I | I | S | S | S | S | – |
| C=CC[C@@H]1/C=C(\C)C[C@H](C)C[C@H](OC)[C@H]2O[C@@](O)(C(=O)C(=O)N3CCCC[C@H]3C(=O)O[C@H](/C(C)=C/[C@@H]3CC[C@@H](O)[C@H](OC)C3)[C@H](C)[C@@H](O)CC1=O)[C@H](C)C[C@@H]2OC [FK506, tacrolimus] | – | – | – | – | – | – | Drug:carrier mole ratio (physchem): 1:1 to 1:1.5; solubility (physchem; [7]): 2500 µg/mL (≈ 3110 µM); Size +/− SD [3]: 62.3 +/− 9 nm |
| CC(C)(C)OC(=O)NCCCC[C@H](NC(=O)OCC1c2ccccc2-c2ccccc21)C(=O)O [Fmoc-(tBoc)-Lys-OH, α-Fmoc-ε-tBoc-lysine] | S | S | S | S | S | S | Measured diameters of the majority of particles ([3]; prepared in 0.1 M KHCO3): 2-5 nm |
| CC(C)c1onc(-c2c(Cl)cccc2Cl)c1COc1ccc(/C=C/c2cccc(C(=O)O)c2)c(Cl)c1 [GW4064] | – | – | – | – | – | – | Drug:carrier mole ratio (physchem): 2:1 to 1:1; Soluble at (physchem): >5 mg/mL; solubility (physchem): 0.002 µg/mL (≈ 0.00368 µM); Size +/− SD [3]: 35.4 +/− 12 nm |
| COc1ccc2c(c1)c(CC(=O)O)c(C)n2C(=O)c1ccc(Cl)cc1 [Indomethacin] | – | – | – | – | – | – | Physical form on hydration [2, 6]: micelle solution |
| O=C([O-])c1c(Cl)c(Cl)c(Cl)c(Cl)c1-c1c2cc(I)c(=O)c(I)c-2oc2c(I)c([O-])c(I)cc12.[Na+].[Na+] [Rose Bengal] | – | – | – | – | – | – | Drug:carrier mole ratio (physchem): 2.5:1 to 2:1^; Soluble at (physchem): >5 mg/mL; solubility (physchem): freely; Size +/− SD [3]: 101.6 +/− 7 nm |
| CC/C(=C(\c1ccccc1)c1ccc(OCCN(C)C)cc1)c1ccccc1 [Tamoxifen] | – | – | – | – | – | – | Stability of suspension upon hydration [2]: ~1 h; Physical form on hydration [2, 6]: micelle solution |
| C=CC1=C(C)c2cc3[nH]c(cc4nc(cc5[nH]c(cc1n2)c(C)c5CCC(=O)O)C(CCC(=O)O)=C4C)c(C)c3C=C [protoporphyrin IX] | – | – | – | – | – | – | Drug:carrier mole ratio (physchem): 1:6 to 1:10; solubility (physchem): ~1 µg/mL (≈ 1.78 µM); solubility (physchem; [7]): 500 µg/mL (≈ 889 µM) |
| CC(C)(C)OC(=O)N[C@@H](CCCCNC(=O)OCc1ccccc1)C(=O)O [tBoc-(Cbz)-Lys-OH] | I | I | I | I | I | S | – |
| Isb-(Cbz)-Lys-OH | I | S | S | S | S | S | – |
| Monomethoxy PEG2,000-lysyl-(α-Fmoc-ε-oleoyl lysine)2 [lipopeptide 3] | – | – | – | – | – | – | Particle Sizes w/JP4-039 ([3]; JP4-039 loaded micelles): 94.2 +/− 1.7 nm; Particle Sizes w/o JP4-039 [3]: 106.7 +/− 2.5 nm; CMC [4]: 4.2 µM |
| Monomethoxy PEG2,000-α-Fmoc-ε-Oleoyl Lysine [lipopeptide 1] | – | – | – | – | – | – | CMC [4]: 5.0 µM |
| Monomethoxy PEG5,000-lysyl-[lysyl-(α-Fmoc-ε-oleoyl lysine)2]2 [lipopeptide 4] | – | – | – | – | – | – | Particle Sizes w/o JP4-039 [3]: 132.1 +/− 8.5 nm; CMC [4]: 3.4 µM |
| PEG5000-lysyl-(α-Fmoc-ε-oleic acid-lysine)2 [PEG-Fmoc-OA] | – | – | – | – | – | – | Stability in solution at maximum PTX loading [5]: several hours; PTX loading capacity (maximum) ([5]; w/w, stable complexes in aqueous solution): 15% |
